PubChem BioAssay (NCI)
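Values below derive from 48-hour exposures of cells grown in 96-well plates, with endpoints linearly interpolated between the two concentrations bracketing the appropriate inhibition level. TGI denotes the concentration required for complete inhibition of growth.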

What follows are molecules tested on LOX IMVI melanoma (assay: inhibition of tumour cell growth, NCI panel, 48 h).

Compared with CC1CN1c1c(C(=O)/C=C/c2ccc(Cl)cc2)c(-c2ccccc2)nn(C)c1=O (stereo not drawn), CCN(CC)CCNC(=O)c1ccc(C)c(OCc2ccccc2)c1[N+](=O)[O-] is 12-fold higher in TGI: 4.17 µM for the first, 49.9 µM for the second.

COc1cc(C(=O)N2CCc3c([nH]c4c([N+](=O)[O-])c(OC)ccc34)C2C)cc(OC)c1OC (stereo not drawn) showed a TGI of over 100 µM.

Each molecule was assayed on SN12C renal (assay: inhibition of tumour cell growth, NCI panel, 48 h).

Compared with OCCNCCOc1ccc(/C(=C(/Cl)c2ccccc2)c2ccccc2)cc1, c1ccc(CSc2nc3ccccc3nc2-c2cccs2)cc1 is higher in TGI: 19.7 µM for the first, over 100 µM for the second.

COc1cc(C(=O)C/C(CCC(=O)Nc2ccc(Cl)cc2Cl)=N/NC(=O)C(=O)NN)ccc1O and CC(=O)OCCOCNC(=S)N/N=C/c1ccc(Br)s1 cannot be ordered by TGI: over 100 µM for the first, over 100 µM for the second.

First: CC1CN1c1c(C(=O)/C=C/c2ccc(Cl)cc2)c(-c2ccccc2)nn(C)c1=O (stereo not drawn)
Second: CCN(CC)CCNC(=O)c1ccc(C)c(OCc2ccccc2)c1[N+](=O)[O-]
The TGI of the first is lower: 8.45 µM for the first, over 100 µM for the second.

COc1cc(C(=O)N2CCc3c([nH]c4c([N+](=O)[O-])c(OC)ccc34)C2C)cc(OC)c1OC (stereo not drawn) was tested, and the TGI was over 100 µM.

What follows are molecules tested on RPMI-8226 leukemia (assay: inhibition of tumour cell growth, NCI panel, 48 h).

First: OCCNCCOc1ccc(/C(=C(/Cl)c2ccccc2)c2ccccc2)cc1
Second: c1ccc(CSc2nc3ccccc3nc2-c2cccs2)cc1
The TGI of the first is lower: 17.3 µM for the first, over 100 µM for the second.

Compared with CC(=O)OCCOCNC(=S)N/N=C/c1ccc(Br)s1, CCN(CC)CCNC(=O)c1ccc(C)c(OCc2ccccc2)c1[N+](=O)[O-] is lower in TGI: over 100 µM for the first, 72.6 µM for the second.

COc1cc(C(=O)N2CCc3c([nH]c4c([N+](=O)[O-])c(OC)ccc34)C2C)cc(OC)c1OC (stereo not drawn) showed a TGI of over 100 µM.

Each molecule was assayed on HT29 colon (assay: inhibition of tumour cell growth, NCI panel, 48 h).

Compared with OCCNCCOc1ccc(/C(=C(/Cl)c2ccccc2)c2ccccc2)cc1, c1ccc(CSc2nc3ccccc3nc2-c2cccs2)cc1 is higher in TGI: 10 µM for the first, over 100 µM for the second.

COc1cc(C(=O)C/C(CCC(=O)Nc2ccc(Cl)cc2Cl)=N/NC(=O)C(=O)NN)ccc1O and CC(=O)OCCOCNC(=S)N/N=C/c1ccc(Br)s1 cannot be ordered by TGI: over 100 µM for the first, over 100 µM for the second.

CC1CN1c1c(C(=O)/C=C/c2ccc(Cl)cc2)c(-c2ccccc2)nn(C)c1=O (stereo not drawn) and CCN(CC)CCNC(=O)c1ccc(C)c(OCc2ccccc2)c1[N+](=O)[O-] cannot be ordered by TGI: over 10 µM for the first, 38.7 µM for the second.

In the case of COc1cc(C(=O)N2CCc3c([nH]c4c([N+](=O)[O-])c(OC)ccc34)C2C)cc(OC)c1OC (stereo not drawn), the TGI is reported as over 100 µM.

The molecules below were run on IGROV1 ovarian (assay: inhibition of tumour cell growth, NCI panel, 48 h).

Compared with OCCNCCOc1ccc(/C(=C(/Cl)c2ccccc2)c2ccccc2)cc1, c1ccc(CSc2nc3ccccc3nc2-c2cccs2)cc1 is higher in TGI: 25.4 µM for the first, over 100 µM for the second.

COc1cc(C(=O)C/C(CCC(=O)Nc2ccc(Cl)cc2Cl)=N/NC(=O)C(=O)NN)ccc1O and CC(=O)OCCOCNC(=S)N/N=C/c1ccc(Br)s1 cannot be ordered by TGI: over 100 µM for the first, over 100 µM for the second.

First: CC1CN1c1c(C(=O)/C=C/c2ccc(Cl)cc2)c(-c2ccccc2)nn(C)c1=O (stereo not drawn)
Second: CCN(CC)CCNC(=O)c1ccc(C)c(OCc2ccccc2)c1[N+](=O)[O-]
The TGI of the first is lower: 8.68 µM for the first, over 100 µM for the second.

With COc1cc(C(=O)N2CCc3c([nH]c4c([N+](=O)[O-])c(OC)ccc34)C2C)cc(OC)c1OC (stereo not drawn) the TGI was 22.3 µM.

The molecules below were run on KM20L2 colon (assay: inhibition of tumour cell growth, NCI panel, 48 h).

Going from OCCNCCOc1ccc(/C(=C(/Cl)c2ccccc2)c2ccccc2)cc1 to CCN(CC)CCNC(=O)c1ccc(C)c(OCc2ccccc2)c1[N+](=O)[O-], the TGI rises from 8.56 µM to 64.5 µM (7.5-fold).

COc1cc(C(=O)C/C(CCC(=O)Nc2ccc(Cl)cc2Cl)=N/NC(=O)C(=O)NN)ccc1O and CC(=O)OCCOCNC(=S)N/N=C/c1ccc(Br)s1 cannot be ordered by TGI: over 100 µM for the first, over 100 µM for the second.

CC1CN1c1c(C(=O)/C=C/c2ccc(Cl)cc2)c(-c2ccccc2)nn(C)c1=O (stereo not drawn) and COc1cc(C(=O)N2CCc3c([nH]c4c([N+](=O)[O-])c(OC)ccc34)C2C)cc(OC)c1OC (stereo not drawn) cannot be ordered by TGI: over 10 µM for the first, over 100 µM for the second.

Each molecule was assayed on SK-MEL-2 melanoma (assay: inhibition of tumour cell growth, NCI panel, 48 h).

Going from OCCNCCOc1ccc(/C(=C(/Cl)c2ccccc2)c2ccccc2)cc1 to c1ccc(CSc2nc3ccccc3nc2-c2cccs2)cc1, the TGI rises from 26.4 µM to over 100 µM.

Going from CC(=O)OCCOCNC(=S)N/N=C/c1ccc(Br)s1 to CCN(CC)CCNC(=O)c1ccc(C)c(OCc2ccccc2)c1[N+](=O)[O-], the TGI falls from over 100 µM to 41 µM.

First: CC1CN1c1c(C(=O)/C=C/c2ccc(Cl)cc2)c(-c2ccccc2)nn(C)c1=O (stereo not drawn)
Second: COc1cc(C(=O)N2CCc3c([nH]c4c([N+](=O)[O-])c(OC)ccc34)C2C)cc(OC)c1OC (stereo not drawn)
The TGI of the first is lower: 5.8 µM for the first, over 100 µM for the second.

The molecules below were run on SR leukemia (assay: inhibition of tumour cell growth, NCI panel, 48 h).

Compared with OCCNCCOc1ccc(/C(=C(/Cl)c2ccccc2)c2ccccc2)cc1, CCN(CC)CCNC(=O)c1ccc(C)c(OCc2ccccc2)c1[N+](=O)[O-] is 5.6-fold higher in TGI: 12.5 µM for the first, 69.9 µM for the second.

CC(=O)OCCOCNC(=S)N/N=C/c1ccc(Br)s1 and COc1cc(C(=O)N2CCc3c([nH]c4c([N+](=O)[O-])c(OC)ccc34)C2C)cc(OC)c1OC (stereo not drawn) cannot be ordered by TGI: over 100 µM for the first, over 100 µM for the second.

Each molecule was assayed on SK-MEL-5 melanoma (assay: inhibition of tumour cell growth, NCI panel, 48 h).

Compared with OCCNCCOc1ccc(/C(=C(/Cl)c2ccccc2)c2ccccc2)cc1, c1ccc(CSc2nc3ccccc3nc2-c2cccs2)cc1 is higher in TGI: 19.2 µM for the first, over 100 µM for the second.

Work on COc1cc(C(=O)C/C(CCC(=O)Nc2ccc(Cl)cc2Cl)=N/NC(=O)C(=O)NN)ccc1O yielded a TGI of over 100 µM.
